The text below walks through data of US9987264B2, “Method and composition for treating a serotonin receptor-mediated condition” (Vanda Pharmaceuticals Inc., priority 2007, dated 2018).

The target in one series is human 5HT2A receptor (Homo sapiens, UniProt P28223). Nature of the series: radioligand binding study, human 5HT2A receptor. From the text: In a radioligand binding study, 4-[3-[4-(6-fluoro-1,2,-benzisoxazol-3-yl)-1-piperidinyl]propoxy]-3-methoxy-benzoic acid had the following activity against the human 5HT2A receptor: […]
Sequence of human 5HT2A receptor (P28223 whole entry): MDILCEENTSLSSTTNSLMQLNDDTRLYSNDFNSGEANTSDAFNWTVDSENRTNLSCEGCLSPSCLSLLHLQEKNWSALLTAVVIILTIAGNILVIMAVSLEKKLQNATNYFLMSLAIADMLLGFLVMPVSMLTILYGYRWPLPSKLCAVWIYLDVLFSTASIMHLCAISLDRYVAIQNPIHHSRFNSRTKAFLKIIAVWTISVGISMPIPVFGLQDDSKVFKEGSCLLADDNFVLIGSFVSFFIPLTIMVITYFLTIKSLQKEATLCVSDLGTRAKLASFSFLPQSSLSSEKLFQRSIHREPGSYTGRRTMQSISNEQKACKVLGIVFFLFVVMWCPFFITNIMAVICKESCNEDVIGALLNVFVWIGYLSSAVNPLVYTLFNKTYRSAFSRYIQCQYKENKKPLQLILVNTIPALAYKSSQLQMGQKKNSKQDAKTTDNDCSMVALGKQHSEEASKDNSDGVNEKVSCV
The next series relates to platelet rich plasma. The series is described as follows: platelet aggregation assay (ADP-induced, serotonin-potentiated). Format: cell-based, albino rabbits. Conditions: Oryctolagus cuniculus. As to the method:
In this assay, platelet rich plasma was obtained from albino rabbits. Platelet aggregation was induced in the presence of 3 μM adenosine diphosphate (ADP) and was potentiated by the addition of 10 μM serotonin. 4-[3-[4-(6-fluoro-1,2,-benzisoxazol-3-yl)-1-piperidinyl]propoxyl]-3-methoxy-benzoic acid inhibited the platelet aggregation in the presence of serotonin within 5 minutes, by 30, 50, 60, and 79% at the concentrations of 6 μM, 60 μM, 0.6 mM, and 1 mM, respectively.

Series [1] is described as follows: DMPK studies, brain radioactivity after [14C]-labelled compound. Format: in vivo. Conditions: rats treated with [14C]-labelled compound. The text has this:
4-[3-[4-(6-fluoro-1,2,-benzisoxazol-3 -yl)-1-piperidinyl]propoxyl]-3-methoxy-benzoic acid appears not to cross the blood-brain barrier. Specifically, in DMPK studies using rats treated with [14C] […] Therefore, 4-[3-[4-(6-fluoro-1,2,-benzisoxazol-3-yl)-1-piperidinyl]propoxyl]-3-methoxy-benzoic acid is particularly useful in conditions that are not mediated, to a substantial degree, by receptors in the brain.

In general, IC50 refers to the point on the concentration scale where inhibition reaches its midpoint. Read a high IC50 as a need for much substance. In general, Ki refers to the dissociation constant of the complex between target and ligand, obtained from inhibition or displacement. Read a low Ki as higher affinity. For `COc1cc(C(=O)O)ccc1OCCCN1CCC(c2noc3cc(F)ccc23)CC1` [4-[3-[4-(6-fluoro-1,2,-benzisoxazol-3-yl)-1-piperidinyl]propoxy]-3-methoxy-benzoic acid], at human 5HT2A receptor, the IC50 was 13.7 nM, the Ki is 3.91 nM, the inhibition at 0.03 µM amounted to 66% and the nH is listed as 1.05 +/− .091. Moreover, the inhibition at 6 µM in the series with platelet rich plasma (5 min, 6 μM, 3 μM ADP + 10 μM serotonin, within 5 minutes) amounted to 30%. Also, the inhibition at 60 µM in the series on platelet rich plasma (5 min, 60 μM, 3 μM ADP + 10 μM serotonin, within 5 minutes) turned out to be 50%. The inhibition at 600 µM in the series on platelet rich plasma (5 min, 0.6 mM, 3 μM ADP + 10 μM serotonin, within 5 minutes) turned out to be 60%. Besides, the inhibition at 1000 µM in the series on platelet rich plasma (5 min, 1 mM, 3 μM ADP + 10 μM serotonin, within 5 minutes) was determined as 79%. Also, in series [1], the “radioactivity concentrations in the brain” value is “none of the animals had measurable radioactivity concentrations in the brain”.

As to `O=C(c1ccc(F)cc1)C1CCN(CCn2c(=O)[nH]c3ccccc3c2=O)CC1` [Ketanserin, reference compound], in the series on platelet rich plasma (100 μM, positive control, same conditions, read-out: inhibitory effect on platelet aggregation), the inhibition at 100 µM turned out to be 55%.
